# Test results taken from patent US7371742B2, “Porphyrin derivatives for photodynamic therapy” (Institut Curie, priority 2001, dated 2008).
# Where two headings read alike, the source gives them in different places.
# Key:
# [1] = system: RBY-79 (indifferently named Y-79) cells; test: RBY-79 (Y79) cell cytotoxicity / photocytotoxicity
# Text: (§1) Columns HT29 and Y79 (═RBY79), without light, correspond to the cytotoxic activity.
# FT-1 cells = test: FT-1 cell photocytotoxicity; assay type: cell-based, human; settings: for Photocytotoxicity FT-1, Red: Red light, concentration not given
# A549 = A549 photocytotoxicity (entries inside Table B cells); assay type: cell-based; settings: A549 named inside the cell; concentration not given
# [2] = system: human colic adenocarcinoma cell line HT29; test: HT29 cell survival (MTT assay) after 24 h incubation, with or without light irradiation; settings: for Photocytotoxicity HT 29, concentration giving 50%: 50% effect; for cytotoxic for HT29 (in words): remark of the inventors
# Protocol: (§2) HT29 cells were cultivated in Dulbecco's MEM supplemented with 10% fetal calf serum (FCS). Cells from log-phase culture were seeded in 24-microwell plates (1 mL-5×10^4 cells/well) and kept at 37° C. in a water-jacketed incubator for 2 days under an air/CO2 atmosphere (5% CO2). Tested compounds, in DMSO solution, were added under the minimum volume (5 μL) to reach a concentration ranging from 0.1 to 10 μg/mL. Controls cells received 5 μL of DMSO free of dye. Plates were incubated 24 h, then medium was removed and the cells were washed twice with phosphate buffered saline (PBS) before addition of fresh medium free of drug and irradiation with visible light using a home made “light box” giving a fluence of 3.8 mW/cm^2 on the whole visible spectrum. Irradiation with red light was carried out using the same device fitted with an orange filter (0% T at 520 nm and 80% T at 590 nm) leading to a fluence of 2 mW/cm^2.
# (§3) Plates were reincubated for 3 days before evaluation of the cell survival using the MTT assay (T. Mosmann, “Rapid calorimetric assay for cellular growth and survival. Application to proliferation assays”. J. Immunol. Methods 65,55-63,1983) using 30 min incubation with 100 μg well of 3-[4,5-dimethylthiazol-2-yl]-2,5-diphenyl tetrazolium bromide (MTT, Sigma). After removal of the medium, formazan crystals were taken up with 100 μL of DMSO and absorbance at 540 ni was measured with a Bio-Rad microplate reader (model 450); survival was expressed as % of untreated controls.
# tumoral cells = test: Antitumoral photodynamic activity in general (remarks on Tables B and C); assay type: cell-based, human; settings: for active when activated by light towards tumoral cells (in words): under appropriate irradiation
# Text: The main results for antitumoral effects are reported in Table B, showing the rate of photocytotoxicity. The higher the percentage, the higher the antitumnoral or antiviral effect.
# Concerning the antitumoral activity, the compounds obtained by the inventors are active, under appropriate irradiation indicated towards tumoral cells in which these derivatives are able to accumulate.
# [3] = system: human colic adenocarcinoma cell line HT29
# Protocol: as §2, §3
# [4] = system: RBY-79 (indifferently named Y-79) cells
# Text: as §1
# L-1210 cells = test: Cytotoxicity L-1210 (no light), cytostatic activity; assay type: cell-based, human; settings: for Cytotoxicity L-1210 (no light), cell marked Red: cell prints 'Red', concentration not given
# Text: Column L1210 corresponds to the cytostatic activity.
# [5] = patient, cited from earlier work; for period of photosensitivity: after treatment
# [6] = read-out: Y79 IC50 (μM) With 2J/cm^2, irradiation with filter (0% T at 520 nm, 80% T at 590 nm), 3.5 mW/cm^2, 10 min
# [7] = read-out: Y79 IC50 (μM) without light, without light (cytotoxic activity)
# [8] = without light, remark of the inventors
# [9] = read-out: HT 29 IC50 (μM) with 2J/cm^2, irradiation with filter (0% T at 520 nm, 80% T at 590 nm), 3.5 mW/cm^2, 10 min
# [10] = read-out: HT 29 IC50 (μM) without light, without light (cytotoxic activity)
# [11] = with light, compared with its cytotoxicity
compound,measurement,setting,value
"5,10,15-Tri(3-O-β-D-glucosylphenyl)-2,3-chlorin and 5,10,15-tri(3-O-β-D-glucosylphenyl)-7,8-chlorin [Compound 55]",IC50,[1]; [6],3.7 ± 1.8 µM
same,IC50,[1]; [7],8 ± 7 µM
same,cytotoxic for Y79 (in words),[1]; [8],cytotoxic
same,"Photocytotoxicity FT-1, Red",FT-1 cells,25%
same,Photocytotoxicity A549,A549,"A549, 10%"
same,"Photocytotoxicity HT 29, Red","[2]; Red light, concentration not given","Red, 0%"
same,IC50,[2]; [9],5.7 ± 3 µM
same,IC50,[2]; [10],> 15 µM
"5,10,15-tri(para-O-diethyleneglycoloxyphenyl)-20-phenylporphyrin [Compound 75]",biological activities (in words),tumoral cells; non glycosylated analogue compared with compound 67,totally inactive
same,IC50,[1]; [6],1.2 µM
same,IC50,[1]; [7],4.5 µM
same,IC50,[2]; [9],4.3 µM
same,IC50,[2]; [10],6.5 µM
"5, 10, 15-tri(meta-hydroxyphenyl)-20-phenyl)-2,3-chlorin and 5,10,15-tri(3-hydroxyphenyl)-7,8-chlorin [Compound 77-78]",IC50,[1]; [6],0.6 ± 0.1 µM
same,IC50,[1]; [7],> 10 µM
same,IC50,[2]; [9],1.5 ± 0.07 µM
same,IC50,[2]; [10],6.6 ± 0.9 µM
same,cytotoxic for HT29 (in words),[3],cytotoxic
OC[C@H]1O[C@H](Sc2c(F)c(F)c(-c3c4nc(c(-c5c(F)c(F)c(F)c(F)c5F)c5ccc([nH]5)c(-c5c(F)c(F)c(F)c(F)c5F)c5nc(c(-c6c(F)c(F)c(F)c(F)c6F)c6ccc3[nH]6)C=C5)C=C4)c(F)c2F)[C@@H](O)[C@@H](O)[C@@H]1O [Compound 30],"Photocytotoxicity RBY-79, % at 2 μg/ml",[4],90% 2 μg/ml
OC[C@H]1O[C@@H](OCCOc2cccc(-c3c4nc(c(-c5cccc(OCCO[C@@H]6O[C@H](CO)[C@@H](O)[C@H](O)[C@H]6O)c5)c5ccc([nH]5)c(-c5cccc(OCCO[C@@H]6O[C@H](CO)[C@@H](O)[C@H](O)[C@H]6O)c5)c5nc(c(-c6cccc(OCCO[C@@H]7O[C@H](CO)[C@@H](O)[C@H](O)[C@H]7O)c6)c6ccc3[nH]6)CC5)C=C4)c2)[C@H](O)[C@@H](O)[C@@H]1O [Compound 58],"Photocytotoxicity FT-1, Red",FT-1 cells,Red 0%
same,"Cytotoxicity L-1210 (no light), cell marked Red",L-1210 cells,"Red, 0, A549%"
OC[C@H]1O[C@@H](Oc2cccc(-c3c4nc(c(-c5cccc(O[C@@H]6O[C@H](CO)[C@@H](O)[C@H](O)[C@H]6O)c5)c5ccc([nH]5)c(-c5cccc(O[C@@H]6O[C@H](CO)[C@@H](O)[C@H](O)[C@H]6O)c5)c5nc(c(-c6ccccc6)c6ccc3[nH]6)C=C5)C=C4)c2)[C@H](O)[C@@H](O)[C@@H]1O [Compound 60],Photocytotoxicity FT-1,FT-1 cells; concentration and light not given,0%
same,Photocytotoxicity A549,A549,"A549, 20%"
OC[C@H]1O[C@@H](OCCOc2cccc(-c3c4nc(c(-c5cccc(OCCO[C@@H]6O[C@H](CO)[C@@H](O)[C@H](O)[C@H]6O)c5)c5ccc([nH]5)c(-c5cccc(OCCO[C@@H]6O[C@H](CO)[C@@H](O)[C@H](O)[C@H]6O)c5)c5nc(c(-c6cccc(OCCO[C@@H]7O[C@H](CO)[C@@H](O)[C@H](O)[C@H]7O)c6)c6ccc3[nH]6)C=C5)C=C4)c2)[C@H](O)[C@@H](O)[C@@H]1O [Compound 61],"Photocytotoxicity FT-1, Red",FT-1 cells,Red 0%
same,"Cytotoxicity L-1210 (no light), cell marked Red",L-1210 cells,"Red, 0%"
same,Photocytotoxicity A549,A549,"A549, 0%"
"OC[C@H]1O[C@@H](SCc2ccc(-c3c4nc(c(-c5ccc(CS[C@@H]6O[C@H](CO)[C@@H](O)[C@H](O)[C@H]6O)cc5)c5ccc([nH]5)c(-c5ccc(CS[C@@H]6O[C@H](CO)[C@@H](O)[C@H](O)[C@H]6O)cc5)c5nc(c(-c6ccc(CS[C@@H]7O[C@H](CO)[C@@H](O)[C@H](O)[C@H]7O)cc6)c6ccc3[nH]6)C=C5)C=C4)cc2)[C@H](O)[C@@H](O)[C@@H]1O [Compound 65, TPP(p-CH2-S-β-GluOH)4]",cytotoxic for Y79 (in words),[4],cytotoxic
same,"RBY-79, concentration giving 50% with light or not","[1]; 50% effect, with light or not",50% at 5 μg/ml
same,Y79 IC50 (μM) With 2J/cm^2,"[1]; irradiation with filter (0% T at 520 nm, 80% T at 590 nm), 3.5 mW/cm^2, 10 min",Inactive
same,IC50,[1]; [7],4.7 µM
same,"Cytotoxicity L-1210 (no light), % at 10 μg/ml",L-1210 cells,16%
same,IC50,[2]; [9],5.2 µM
same,IC50,[2]; [10],> 10 µM
"OC[C@H]1O[C@H](SCCOCCOc2ccc(-c3c4nc(c(-c5ccc(OCCOCCS[C@H]6O[C@H](CO)[C@@H](O)[C@H](O)[C@@H]6O)cc5)c5ccc([nH]5)c(-c5ccc(OCCOCCS[C@H]6O[C@H](CO)[C@@H](O)[C@H](O)[C@@H]6O)cc5)c5nc(c(-c6ccccc6)c6ccc3[nH]6)C=C5)C=C4)cc2)[C@@H](O)[C@@H](O)[C@@H]1O [Compound 68, TPP(p-O-DEG-S-α-Mann)3]","Photocytotoxicity RBY-79, concentration giving 50%","[1]; 50% effect, with light",1 µg/mL
same,IC50,[1]; [6],1 ± 0.5 µM
same,IC50,[1]; [7],6 ± 2 µM
same,"Cytotoxicity L-1210 (no light), % at 10 μg/ml","L-1210 cells; 10 μg/ml, no light",0% 10 μg/ml
same,"Photocytotoxicity HT 29, concentration giving 50%",[2]; with light,50% 4 μg/ml
same,IC50,[2]; [9],5.8 ± 3 µM
same,IC50,[2]; [10],> 10 µM
TPC(m-O-β-GluOH)4 [Compound 54],IC50,[1]; [6],3 ± 1.4 µM
same,IC50,[1]; [7],3.9 ± 0.1 µM
same,cytotoxic for Y79 (in words),[1]; [8],cytotoxic
same,"Photocytotoxicity FT-1, Red",FT-1 cells,20%
same,Photocytotoxicity A549,A549,"0, A549, 0%"
same,IC50,[2]; [9],4.4 ± 0.1 µM
same,IC50,[2]; [10],> 15 µM
TPP F4(p-S-β-GluOH)3 [Compound 26],active when activated by light towards tumoral cells (in words),tumoral cells,active
same,"Photocytotoxicity RBY-79, concentration giving 50%","[1]; 50% effect, with light",3.3 µg/mL
same,IC50,[1]; [6],2.2 µM
same,IC50,[1]; [7],> 10 µM
same,"Cytotoxicity L-1210 (no light), % at 10 μg/ml","L-1210 cells; 10 μg/ml, no light",20% 10 μg/ml
same,"Photocytotoxicity HT 29, concentration giving 50%",[2]; with light,50% 2 μg/ml
same,IC50,[2]; [9],1.7 µM
same,IC50,[2]; [10],6.5 µM
same,cytotoxic for HT29 (in words),[2]; without light,cytotoxic
TPP(p-OC3-S-α-MannOH)3 [Compound 24],active when activated by light towards tumoral cells (in words),tumoral cells,active
same,"Photocytotoxicity RBY-79, concentration giving 50%","[1]; 50% effect, with light",6.5 µg/mL
same,IC50,[1]; [6],4.7 µM
same,IC50,[1]; [7],7.5 µM
same,phototoxic for Y79 (in words),[1]; [11],less phototoxic
same,cytotoxic for Y79 (in words),[1]; [8],cytotoxic
same,"Cytotoxicity L-1210 (no light), concentration giving 50%","L-1210 cells; 50% effect, no light",50% 14 μg/ml
same,"Photocytotoxicity HT 29, concentration giving 50%",[2]; with light,4.6 µg/mL
same,IC50,[2]; [9],3.2 µM
same,IC50,[2]; [10],3.2 µM
same,phototoxic for HT29 (in words),[2]; [11],less phototoxic
same,cytotoxic for HT29 (in words),[2]; without light,cytotoxic
TPP(p-OC3-S-β-GluOH)3 [Compound 23],"Photocytotoxicity RBY-79, concentration giving 50%","[1]; 50% effect, with light",3 µg/mL
same,IC50,[1]; [6],6.5 µM
same,IC50,[1]; [7],> 10 µM
same,"Cytotoxicity L-1210 (no light), % at 10 μg/ml","L-1210 cells; 10 μg/ml, no light",0% 10 μg/ml
same,"Photocytotoxicity HT 29, concentration giving 50%",[2]; with light,6 µg/mL
same,IC50,[2]; [9],11 µM
same,IC50,[2]; [10],13 µM
benzoporphyrin derivative monoacid ring A [Verteporfin],period of photosensitivity,[5],one day
"porfimer sodium [Photofrin ®, reference compound]",IC50,"[1]; read-out: Y79 IC50 With 2J/cm^2, estimated concentration, with 2J/cm^2, estimated for mean molecular weight 1178.55 dimer form",2.6 µM
same,IC50,"[1]; read-out: Y79 IC50 without light, estimated concentration, without light, estimated for mean molecular weight 1178.55 dimer form",3.9 µM
same,concentration at which cytotoxic for the Y79 cells,[1]; remark of the inventors,"more than 3,9 μM"
same,"Y79 IC50 With 2J/cm^2, in μg/ml",[1]; with 2J/cm^2,3 µg/mL
same,Y79 IC50 without light,[1]; without light,4.6 mg/L
same,cytotoxic for Y79 (in words),[1]; [8],cytotoxic
same,time the drug stays in the skin after treatment,[5]; makes sensitive to strong light,approximately 30 days
same,period of photosensitivity,[5],several weeks
same,IC50,"[2]; read-out: HT 29 IC50 with 2J/cm^2, estimated concentration, with 2J/cm^2, estimated for mean molecular weight 1178.55 dimer form",5.1 µM
same,"HT 29 IC50 with 2J/cm^2, in μg/ml",[2]; with 2J/cm^2,6 µg/mL
same,"HT 29 IC50 without light, in μg/ml",[2]; without light,Inactive for 10 μg/ml
